BindingDB's records for doi:10.1007/s00044-011-9882-z (n/a, 2012)

Biological target: Transcription factor Sp1 (Homo sapiens, UniProt P08047)
Assay: Inhibition of Sp1 (unknown origin) by luciferase reporter gene assay

Sequence of Transcription factor Sp1 (P08047 whole entry): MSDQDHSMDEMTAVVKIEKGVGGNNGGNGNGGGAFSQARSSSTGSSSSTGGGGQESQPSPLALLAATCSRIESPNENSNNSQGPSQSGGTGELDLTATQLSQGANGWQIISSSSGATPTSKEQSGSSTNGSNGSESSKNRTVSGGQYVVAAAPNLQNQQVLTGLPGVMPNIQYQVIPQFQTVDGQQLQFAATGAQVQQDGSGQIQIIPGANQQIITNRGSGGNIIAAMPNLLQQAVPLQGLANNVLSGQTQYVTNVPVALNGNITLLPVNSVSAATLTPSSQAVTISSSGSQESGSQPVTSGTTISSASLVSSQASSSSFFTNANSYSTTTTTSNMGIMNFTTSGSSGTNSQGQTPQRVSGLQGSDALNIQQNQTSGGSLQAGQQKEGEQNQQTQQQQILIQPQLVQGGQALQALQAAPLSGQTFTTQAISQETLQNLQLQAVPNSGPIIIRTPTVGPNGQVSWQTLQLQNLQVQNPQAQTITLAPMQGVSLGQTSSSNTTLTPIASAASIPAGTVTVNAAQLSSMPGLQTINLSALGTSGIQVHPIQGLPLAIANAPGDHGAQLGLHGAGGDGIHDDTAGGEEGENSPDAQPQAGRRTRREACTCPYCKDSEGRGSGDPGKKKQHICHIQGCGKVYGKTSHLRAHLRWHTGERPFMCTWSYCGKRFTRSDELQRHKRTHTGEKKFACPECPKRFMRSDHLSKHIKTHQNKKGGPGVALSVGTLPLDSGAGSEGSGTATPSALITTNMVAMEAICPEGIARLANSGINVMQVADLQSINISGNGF

IC50 | SMILES
57.7 µM | O=C(N/N=C/c1ccccc1)c1ccc(F)cc1
30.2 µM | C=C1C(=O)O[C@H]2[C@H]1CC/C(C)=C/CC[C@@]1(C)O[C@@H]21 [PARTHENOLIDE]
